From patent US12285418B1, “2-(5-aminopyridin-2-yl)-N-benzylacetamides and use thereof in the treatment of acute myeloid leukemia” (University of Jeddah, priority 2024, dated 2025)

Assays:
Type in all cases: cell-based
HL60 cells = assay: Cell viability assay (CellTiter-Blue), HL60; settings: Homo sapiens, HL-60, 48 h incubation, mean±SD, read-out: IC50 against HL60 cells
Procedure: (§1) Cell viability was determined using the CellTiter®-Blue Cell Viability Assay kit (Promega, Madison, WI, USA) as previously described (Alkhatabi et al., 2022). Approximately 10^4 cells were counted, plated in a 96-well plate in the presence of test compounds ranging from 0.01 to 40 μM in quadruplicate, and incubated for 48 h at 37° C. in a humidified incubator. After the incubation period was completed, 20 μL of CellTiter®-Blue Cell Viability Assay reagent was added to each well and incubated for an additional 2 h for fluorescence development. Florescence was measured at Ex/Em 540/590 on a SpectraMax® i3 Multi-Mode microplate reader (Molecular Devices, LLC, San Jose, CA, USA) and plotted against the drug concentration to determine the IC50 of the test compounds. The IC50 was obtained by a nonlinear regression model using GraphPad Prism 10.1.1 (GraphPad Software, Inc., USA).
(§2) The half-maximal inhibitory concentration (IC50) of each drug was calculated using the GraphPad Prism software version 10.1.1. Flow cytometric data were analyzed using Diva software provided with the BD FACSCanto II Clinical Flow Cytometry System (BD Biosciences, USA). Student's paired t-test and Two-way ANOVA were used to compare data points. Data are presented as mean+SD, and at least three independent experiments were performed. […]

MV4-11 cells = assay: Cell viability assay (CellTiter-Blue), MV4-11; settings: Homo sapiens, 48 h incubation, mean±SD, read-out: IC50 against MV4-11 cells
Procedure: as §1, §2

KG1a cells = assay: Cell viability assay (CellTiter-Blue), KG1a; settings: Homo sapiens, KG-1a, 48 h incubation, mean±SD, read-out: IC50 against KG1a cells
Procedure: as §1, §2

K562 cells = assay: Cell viability assay (CellTiter-Blue), K562; settings: Homo sapiens, 48 h incubation, mean±SD, read-out: IC50 against K562 cells
Procedure: as §1, §2

IC50 (HL60 cells) [µM] | IC50 (MV4-11 cells) [µM] | IC50 (K562 cells) [µM] | SMILES | IC50 (KG1a cells) [µM]
> 10 | > 10 | > 10 | O=C(Cc1ccc(/N=C2\OC(=O)c3ccccc32)cn1)NCc1ccccc1 [Compound II, (Z)-N-benzyl-2-(5-((3-oxoisobenzofuran-1 (3H)-ylidene)amino)pyridin-2-yl) acetamide] | > 10
> 10 | > 10 | > 10 | O=C(Cc1ccc(NC(=O)c2ccccc2O)cn1)NCc1ccccc1 [Compound III, N-(6-(2-(Benzylamino)-2-oxoethyl)pyridin-3-yl)-2-hydroxybenzamide] | > 10
